Reference: patent US4009166A, “Pyrido(2,3-d) pyrimidinones” (Hisamitsu Pharmaceutical Co., Inc., priority 1974, dated 1977)
Where a name gives a salt, the structure may show the parent alone. Read-outs that look alike come from different tables or passages of the source.

What was measured:
[1] = tested on: carrageenin edema in Wistar-strain male rats; experiment: Anti-inflammatory effect (carrageenin edema of the hind paw); assay type: in vivo; conditions: for inhibition in vivo at 10 mg/kg / inhibition in vivo at 50 mg/kg: Rattus norvegicus, po; for inhibition in vivo at 10 mg/kg: read-out: anti-inflammatory effect dose(mg/kg) 10 (inhibition percentage of carrageenin edema); for inhibition in vivo at 50 mg/kg: read-out: anti-inflammatory effect dose(mg/kg) 50 (inhibition percentage of carrageenin edema)
Description: 2. Anti-inflammatory effect
A group of five Wistar-strain male rats (100-150 g) were orally administered with each test compound suspended in 0.5% tragacanth-saline solution. After 30 minutes 0.5-1.0% carrageenin suspended in the water for injection was injected subcutaneously to a hind paw. After 3 hours the carrageenin edema was measured by volume and the inhibition percentage was determined with respect to the results for the control animals. The inhibition percentages were shown with the notations as follows: […]

[2] = tested on: writhing syndrome in dd-strain male mice; experiment: Analgetic effect (acetic acid writhing syndrome); assay type: in vivo; conditions: Mus musculus, po, orally, 0.6% acetic acid writhing, Litchfield-Wilcoxon, read-out: analgetic effect ED50 (95 % C.L.)
Description: 3. Analgetic effect Each test compound suspended in 0.5% tragacanth-saline solution was orally administered to dd-strain male mice (18-20 g). After one hour 0.6% acetic acid solution was intraperitoneally injected in a volume of 0.1 ml/10 g.

[3] = tested on: dd-strain male mice; conditions: deaths 72 hours after administration
Description: The lethal dose was estimated from the death of animals 72 hours after administration.

[4] = tested on: righting reflex of dd-strain male mice; experiment: Central nervous system depressive effect (disappearance of righting reflex); assay type: in vivo; conditions: Mus musculus, ip, read-out: C N S depressive effect (dose required for the disappearance of righting reflex)
Description: 4. Central nervous system depressive effect
Each test compound suspended in 0.5% tragacanth-saline solution was injected intraperitoneally to dd-strain male mice (16-24 g). The disappearance of righting reflex was observed under noiseless circumstances. The dose required for the disappearance of righting reflex is indicated with the following notations: […]

[5] = 10 mg/kg orally, rats, edema volume 3 hours after carrageenin
[6] = 50 mg/kg orally, rats, edema volume 3 hours after carrageenin

SMILES	inhibition in vivo at 10 mg/kg [1, 5] [%]	inhibition in vivo at 50 mg/kg [1, 6] [%]	ED50 [2] [mg/kg]	acute toxicity i.p. (lethal dose) [3] [mg/kg]	acute toxicity p.o. (lethal dose) [3] [mg/kg]	minimal effective dose ([4]; intraperitoneally, mice) [mg/kg]	inhibition in vivo at 10 mg/kg ([1]; 3 h) [%]	inhibition in vivo at 50 mg/kg ([1]; 3 h) [%]	minimal effective dose [4] [mg/kg]	anti-inflammatory effect dose(mg/kg) 10 (inhibition percentage of carrageenin edema) [1, 5]
CC(C)N1CN(c2cccc(Cl)c2)c2ncccc2C1=O	16 to 30	31 to 45	> 100							
CC(C)N1CN(c2cccc([N+](=O)[O-])c2)c2ncccc2C1=O	46 to 60	46 to 60	4.7	> 1000	< 2000	100 to 300				
CC(C)N1Cc2cccnc2N(c2cccc(F)c2)C1=O	31 to 45	> 61	4.5			3 to 10				
CC(C)N1Cc2cccnc2N(c2cccc(C(F)(F)F)c2)C1=O	< 15	46 to 60	6.7	> 1000	2000	10 to 30				
CC(C)N1Cc2cccnc2N(c2ccc(Cl)c(Cl)c2)C1=O	46 to 60	> 61	16.3	1000	2000	3 to 10				
CN1C(=O)CN=C(c2ccccc2)c2cc(Cl)ccc21 [diazepam, reference compound]							< 15	16 to 30	30 to 100	
COCN1CN(c2cccc(Cl)c2)c2ncccc2C1=O [drawing 119/CH2 OCH3]	16 to 30	16 to 30	> 100							
CCN1CN(c2cccc(Br)c2)c2ncccc2C1=O [drawing 121/C2 H5]		31 to 45	> 100	> 1000		30 to 100				
CN1CN(c2cccc(Br)c2)c2ncccc2C1=O [drawing 121/CH3]		< 15	> 100	> 1000		30 to 100				
CCN1CN(c2cccc(C(F)(F)F)c2)c2ncccc2C1=O [drawing 122/C2 H5]	16 to 30	> 61	> 100	> 1000		30 to 100				
CN1CN(c2cccc(C(F)(F)F)c2)c2ncccc2C1=O [drawing 122/CH3]	16 to 30	< 15								
COCN1CN(c2cccc([N+](=O)[O-])c2)c2ncccc2C1=O [drawing 123/CH2 OCH3 . HCl]	46 to 60	46 to 60	2.7		< 2000					
CN1Cc2cccnc2N(c2ccccc2)C1=O [drawing 126/CH3]	31 to 45	46 to 60	13			3 to 10				
CCN1Cc2cccnc2N(c2cccc(F)c2)C1=O [drawing 127/C2 H5]	> 61	> 61	4.4			< 3				
CCN1Cc2cccnc2N(c2ccc(F)cc2)C1=O [drawing 129/C2 H5]	46 to 60	46 to 60	4.9			10 to 30				
CN1Cc2cccnc2N(c2ccccc2Cl)C1=O [drawing 130/CH3]		16 to 30	44			30 to 100				
C=CCN1Cc2cccnc2N(c2cccc(Cl)c2)C1=O [drawing 132/CH2 CHCH2]	46 to 60	46 to 60	1.2			3 to 10				
COCN1Cc2cccnc2N(c2cccc(Cl)c2)C1=O [drawing 132/CH2 OCH3]	46 to 60	> 61	1.6			3 to 10				
CN1Cc2cccnc2N(c2cccc(Cl)c2)C1=O [drawing 132/CH3, 1-(m-chlorophenyl)-3-methyl-2-oxo-1,2,3,4-tetrahydropyrido[2,3-d]pyrimidine]	46 to 60	> 61	13			< 3				
CCN1Cc2cccnc2N(c2ccc(Cl)cc2)C1=O [drawing 133/C2 H5]		46 to 60	49			< 3				+ ++
CCN1Cc2cccnc2N(c2cccc(C(F)(F)F)c2)C1=O [drawing 135/C2 H5, 1-(m-trifluoromethylphenyl)-3-ethyl-2-oxo-1,2,3,4-tetrahydropyrido[2,3-d]pyrimidine]	31 to 45	46 to 60	6.3			3 to 10				
O=C(O)CN1Cc2cccnc2N(c2cccc(C(F)(F)F)c2)C1=O [drawing 135/CH2 COOH]			> 100	> 1000	> 2000	> 1000				
COCN1Cc2cccnc2N(c2cccc(C(F)(F)F)c2)C1=O [drawing 135/CH2 OCH3]		31 to 45	8.1			10 to 30				
CCN1Cc2cccnc2N(c2ccc(Cl)c(Cl)c2)C1=O [drawing 137/C2 H5]	46 to 60	46 to 60	1.3			< 3				
O=C1N(CCF)Cc2cccnc2N1c1ccc(Cl)c(Cl)c1 [drawing 137/CH2 CH2 F]	> 61		1			3 to 10				
Cc1ccccc1-n1c(C)nc2ccccc2c1=O [methaqualone, reference compound]									10 to 30	
CCCCC1C(=O)N(c2ccccc2)N(c2ccccc2)C1=O [phenylbutazone, reference compound]	< 15	31 to 45	290			300 to 1000				
